Read-outs that look alike come from different tables or passages of the source. One block for each compound: values may come before it.
How the values were obtained:
Human Liver-Chip = assay: Effect of Bosentan on albumin secretion, Human Liver-Chip; assay type: cell-based; conditions: in vivo relevant doses
Text: (§1) Readouts include but are not limited to: albumin secretion, Effect of Bosentan on Albumin Secretion; Inhibition of BSEP Transporter; Bile acid accumulation Cholyl-lysyl-fluorescein (CLF); BSEP substrate etc.

Dog Liver-Chip = assay: Effect of Bosentan on albumin secretion, Dog Liver-Chip; assay type: cell-based; conditions: in vivo relevant doses
Text: as §1

Static Skin-Chip Model = assay: Toxicity of pigments tattooed on Static Skin-Chip Model, metabolic activity (Presto Blue); assay type: cell-based, human
Text: Tattooed on D4 at ALI, N=4 per condition Hybrid Transwells.
Metabolic Activity (Presto Blue) of Blue15 Pigment. Tattooed on D4 at ALI. N=4 per condition Hybrid Transwells.
Thus, readouts include assessing recovery after damage. Readouts include but are not limited to Invitrogen PrestoBlue™.

Static Skin models = assay type: cell-based, human
Text: Red tattoo pigments known to cause some level of toxicity following sun exposure.
D12 ALI (D8 post-tattoo) N=4 per condition. Hybrid Transwells.
Red tattoo pigments known to cause some level of toxicity following sun exposure. […] D12 ALI (D8 post-tattoo) N=4 per condition. Hybrid Transwells.
Safety Assessment of Red122 Pigment—Phototoxicity Assay (Viability) Red tattoo pigments known to cause some level of toxicity following sun exposure. […] Chlorpromazine (CPZ), known to be induce phototoxicity and photosensitization, was used as a positive control.
Barrier Function: Permeability of Cascade Blue (3000 MW); Quantification of skin permeability to Cascade Blue by topical deposition of 50 μl of 10 μM Cascade Blue, followed by 1 hour static incubation. Bottom channel medium collected and Papp determined by quantification of Cascade Blue present in the sampled medium using a plate-reader. […] Permeability of Testosterone and Caffeine; Requires mass spectrometer for detection. These values can be correlated to in vivo skin. Topical Compound Test for Toxicity, Corrosivity, Irritancy, Phototoxicity viability assays performed are MTT or Presto Blue. Corrosivity: a material is considered corrosive if cell viability is <50% after 3 min exposure or <15% after 60 min exposure. […]

[1] = tested on: Static Skin models (Hybrid Transwells); assay: Phototoxicity and photosensitization to Red122: cytokines release; assay type: cell-based, human; conditions: tattooed with 35% w/v; for inflammatory and sensitization cytokines (IL-1Beta and IL-18) following UVA exposure: UVA on D11 ALI (D7 post-tattoo)
[2] = tested on: Kidney Proximal Tubule-Chip; assay: Assessment of tattoo pigment toxicity on the Kidney Proximal Tubule-Chip; assay type: cell-based, human
Protocol: Channel: Renal Proximal Tubule Epithelial Cells
Bottom Channel: Renal Microvascular Endothelial Cells
Morphology: BF Imaging From Effluent: LDH, ROS
Terminal Endpoints From Lysates: Caspase, ALP
ECM-coating. Sulfo-sanpah (Covachem, #13414), ER1 (0.5 mg/ml) in ER2 50 mM HEPES buffer; Collagen IV (BD Corning, 50 μg/mL in Dulbecco's phosphate-buffered saline (DPBS); and Matrigel (BD Corning, reduced growth factor, 100 ug/ml DPBS). Cells. Top channel. Human Proximal Tubular Epithelial Cells (Lonza, RPTEC #CC-2553); and Bottom channel. Primary Human Glomerular microvascular Endothelial cells (Cell Systems. ACBRI 128), expand to P7 (e.g. passage 7). Media. Renal Epithelial Growth Medium (REGM™ Lonza, CC-3190) for Proximal tubule cells or REGM2 (from PromoCell, Cat #C-26130); and Kidney endothelial cell medium (Cell Systems, 4ZO-500). Chip. High shear chip; under flow shear; and Tall channel closed top-chip. Experimental reagents. Collagen IV coated 6 well plate; and Corning BioCoat Collagen IV multiwall plates, Corning #354428.
One brief exemplary timeline is described as: Day −2: Chip coating; Day −1: Seeding endothelial cells; Day 0: Seeding proximal tubule epithelial cells; Day 0-7: Maintain chips; Day 7: Start Experiment (Study), e.g. 72 hours; and Day 10: End 72 hour Experiment (Study). Exemplary readouts include but are not limited to: Phase contrast microscopic images; immunofluorescent images; barrier function (in particular for kidney-chips, etc.); and Troponin I release (in particular for heart-chips, i.e. cardiac-chips).
Outflow from chips, (e.g. S1—closed top chip; and high shear (HS) chip) was collected for certain readouts. For reference, kidney endothelial media contains 5% FBS while the kidney epithelial media contains 0.5% FBS.

[3] = tested on: Skin-Chip (microfluidic OT-chip); conditions: human
Text: Readouts include but are not limited to Invitrogen PrestoBlue™. Invitrogen PrestoBlue™ Cell Viability Reagent, e.g. Fisher Scientific, Catalog number: A1326, is an exemplary metabolic Assay Reagent. When added to cells, the PrestoBlue® reagent is modified by the reducing environment of a viable cell and turns red in color, becoming highly fluorescent. This color change can be detected using fluorescence or absorbance measurements.

[4] = tested on: epidermal cells in a Skin-Chip (microfluidic OT-chip)
Text: In some embodiments, a live-dead staining is used for determining cell viability.

Liver-Chip = assay: Assessment of tattoo pigment toxicity on the Liver-Chip; conditions: 5 microM
Protocol: Injury to liver function is indicated by […] in albumin Secretion. […] Other functional changes or mechanistic routes may be detectable through additional assays
Pigment with a low concentration of 0.03% of pigment diluent is flowed through the chip (same concentrations both top and bottom channels simultaneously). […] In future applications, we also plan to explore potential toxicity of pigment diluent formulations (without pigments).
Both top and bottom channels were treated
Embodiments of Liver-Chips include: Co-culture (Hepatocytes+LSECs); Tri-culture (Hepatocytes+LSECs+Kupffer cells); Quad-culture (Hepatocytes+LSECs+Kupffer cells+Stellate cells); Human Liver-Chip; Rat Liver-Chip; Dog Liver-Chip; etc.

Static Skin model = assay type: cell-based, human
Protocol: Tissue robustness evaluated by determining the ET50 value following topical exposure to 1% TritonX-100.
(§2) In one embodiment, tissue robustness was evelauated determining the ET50 value following topical exposure to a test irritant, 1% TritonX-100. Irritation potential is calculated in terms of the “ET50” value: the time taken, in minutes, for a test compound to reduce the viability of the skin model to 50% compared with negative controls. […] Thus, at least one commercially obtained and tested skin equivalent model became permeable faster than one embodiment of a static skin model described herein.
(§3) Immunostaining (IF):Biomarkers characteristic of the stratified epidermal layers should include: • Basement membrane markers: collagen IV, Laminin 5 • Stratum basal: Keratin 14 • Stratum spinosum: Keratin 10 • Stratum granulosum: Filaggrin • Stratum corneum: Involucrin, Loricrin Quality control of tissue reproducibility from sample to sample and lot to lot can also be established by comparison of ET50 values to a baseline value. Example provided from MatTek for their baseline ET50 value on EpiDerm200—average 6.82 h. Exposure to 1.0% Triton X-100 topically over 12 h.

EpiDerm200 from MatTek [5] = assay: ET50 following topical exposure to Triton X-100, EpiDerm200 from MatTek; assay type: cell-based; conditions: skin equivalent model on the market
Protocol: as §2, §3

[6] = tested on: Static Skin model (Hybrid Transwells); assay: Skin irritation: release of associated cytokines after topical Triton X-100, Hybrid Transwells; assay type: cell-based, human; conditions: topical exposure
Protocol: D11 ALI. N=3 per condition Hybrid Transwells.
Method 1: ET50 values determined by MTT or Presto Blue assay will define the class of irritancy based on in vivo classification (see table below). Topical exposures will include 3 exposure times of 2 h, 5 h and 18 h to 100 ul or 100 mg of a test material. Positive control include 5% SDS and 1% Triton X-100. Method 2: a material is considered an irritant is viability is <50% after 1 h topical exposure to 30 ul or 25 mg/of test material (OECD TG 439) Method 3: a material is considered an irritant if there is an increase in the following cytokines compared to control by ELISA is indicative of skin irritant—IL-1alpha, IL-8, prostaglandin PGE2. MatTek Irritancy protocol

EpiDerm200 from MatTek [7] = conditions: cited from earlier work
[8] = tested on: proximal tubular epithelium; assay: Gentamicin-induced toxicity on Renal-Kidney Proximal Tubule-Chip; assay type: cell-based, human; conditions: 10 mM for 48 hours
Protocol: Gentamicin treatment is used for inducing damage as a positive control compared to controls without Gentamicin.
Readouts include but are not limited to: Gentamicin-induced toxicity after exposure to 10 mM of gentamicin for 48 hours.

albumin secretion, dose response (Human Liver-Chip): dose response effects
albumin secretion, dose response (Dog Liver-Chip): dose response effects
Compound: COc1ccccc1Oc1c(NS(=O)(=O)c2ccc(C(C)(C)C)cc2)nc(-c2ncccn2)nc1OCCO [Bosentan]

Compound: Cc1ccc2[nH]c3cc4c(=O)c5cc(C)ccc5[nH]c4cc3c(=O)c2c1 [Red122]
viability (metabolic activity, Presto Blue) (Static Skin-Chip Model; 24 h post-tattoo, tattooed on D4 at ALI, Hybrid Transwells): decrease in viability with increasing Red122 concentration
skin recovery (viability) (Static Skin-Chip Model; over 8 days post-tattoo): Skin recovery observed
viability from healthy after UVA (phototoxicity) (Static Skin models): 85%
inflammatory and sensitization cytokines (IL-1Beta and IL-18) following UVA exposure [1]: both cytotoxicity and sensitization following UVA exposure
inflammatory and sensitization cytokines (IL-1Beta and IL-18) following UVA exposure ([1]; listed as Red): increase in both cytokines
effect as a skin sensitizer (cytokine release) ([1]; no UVA): no effect as a skin sensitizer
secretion of inflammatory cytokine ([1]; no UVA): increased secretion of inflammatory cytokine
caspase activity ([2]; between the different doses): No significant differences were noted in caspase activity
kidney toxicity via LDH release ([2]; between the different doses): No significant changes in LDH
ROS activity ([2]; between the different groups): No significant differences were observed in the ROS activity
ALP activity (kidney function) ([2]; different doses): No significant differences were observed in the ALP activity

Compound: O=C(O)CO [glycolic acid]
metabolic activity (PrestoBlue) as percentage of untreated control [3]: statistically significant reduction in activity compared to the activity of citric acid (0.6M) and lactic acid

Compound: CC(O)C(=O)O (centres unmarked) [lactic acid]
cell death by DRAQ7 staining, dead cells/mm^2 [4]: statistically significant death of skin cells

Compound: CN[C@@H]1C[C@H]2O[C@@](C)([C@@H]1OC)n1c3ccccc3c3c4c(c5c6ccccc6n2c5c31)C(=O)NC4 [staurosporine]
ATP synthesis, effluent from the bottom channels (Liver-Chip): loss of ATP synthesis
albumin secreted over time, effluent from the top channel (Liver-Chip): loss of secreted albumin
hepatocyte cell morphology (Liver-Chip; after 4 days of treatment): hepatocyte damage

ET50 (Static Skin model): 11 h
ET50 (EpiDerm200 from MatTek [5]): 7 h
Compound: Triton X-100
expression of inflammatory cytokine IL-1B [6]: increase in expression
IL-18 (expressed following skin sensitization) ([6]; D11 ALI): no significant increase
expression of inflammatory cytokine IL-1alpha ([6]; D11 ALI): increase in expression
baseline ET50 value, average (EpiDerm200 from MatTek [7]; EpiDerm200, 1.0% Triton X-100 topically, provided from MatTek): 6.82 h
EPI-200 Triton ET-50 (EpiDerm200 from MatTek [7]; Year 1995): 6.65 h
EPI-200 Triton ET-50 (EpiDerm200 from MatTek [7]; Year 1996): 6.74 h
EPI-200 Triton ET-50 (EpiDerm200 from MatTek [7]; Year 1997): 6.78 h
EPI-200 Triton ET-50 (EpiDerm200 from MatTek [7]; Year 1998): 7.24 h
EPI-200 Triton ET-50 (EpiDerm200 from MatTek [7]; Year 1999): 6.75 h
EPI-200 Triton ET-50 (EpiDerm200 from MatTek [7]; Year 2000 (through September 2000)): 6.76 h

Compound: gentamicin
LDH in medium effluent [8]: significant increase
NAG in medium effluent [8]: significant increase
ROS in medium effluent [8]: significant increase
active caspase-3 in cells lysates [8]: increase
microscopic analysis of the proximal tubular epithelium [8]: structural damage
